According to patent publication US20260000763A1, “Methods of Manufacturing Therapeutic Cells” (The Board of Trustees of the Leland Stanford Junior …, priority 2022, published 2026):

Assays:
GD2 CAR T cells = assay: Large-scale manufacturing of GD2.bbz CAR T cells in G-Rex system in regular or inosine media; format: cell-based
Description: Enriched CD4/CD8+ T cells from a healthy donor were cultured in regular or inosine-containing media in the G-Rex system. Cells were analyzed at days 7 post-activation. A: Scheme of the large scale experiment. B: Expansion of GD2 CAR T cells manufactured in control vs inosine-containing media. N=1 out of two donors is shown. C: Number of CAR+ T cells at the day 7 post activation. D: Viability of T cells. E: Percentage of CAR+ and CD4 vs CD8 T cells. Data from one representative donor is shown. N=2. F: Relative frequency of terminally differentiated effector (EMRA; CD45RA+ CCR7-), naïve (CD45RA+ CCR7+), central memory (CM; CD45RA-CCR7+), and effector memory (EM; CD45RA-CCR7-) cells in CD8+ control or inosine-grown GD2 CAR T cells. G: IL-2 and IFNγ secretion by CAR T cells stimulated with 143b, mg63.3 or Nalm6-GD2 tumor lines. […] P values were determined by unpaired two-tailed t-tests.
FIG. 13A-13H: Clinical scale manufacturing of clinical grade GD2-CAR T cells using media containing inosine, improves CAR product quality. A: Schematic of large-scale manufacturing of GD2.bbz-CAR+ T cells in a semi-closed G-Rex system in glucose-or inosine-containing media. 7 days post-activation, transduction efficiency, percentage of viable cells, and CD4/CD8 ratio of GD2+ cells were assessed by flow cytometry. […] B: Expansion of total viable T cells manufactured in control (black) vs. inosine (green)-containing media and (Right) corresponding number of CAR+ cells at day 7. […] C: IL-2 and IFNg secretion by CAR T cells stimulated for 24 hrs with 143b, mg63.3 or Nalm6-GD2 tumor lines. […] D: NSG mice were injected with 1×10^6 Nalm6 leukemia cells. On day 3 post-tumor injection, 2×10^6 of mock or GD2.bbz-CAR T cells manufactured in the presence of inosine or in regular media were transferred intravenously. Tumor growth was monitored by bioluminescent imaging. […] P values determined at day 43 by using Mann-Whitney test. […] E: Concentration of CD45+ T cells detected in blood of mice at D33 post-CAR T cell injection. […] F: Schematic of the experimental design. G: GD2.bbz-CAR T cells grown in media containing indicated inosine concentration between day 3 and day 10 post-activation and stimulated with 143b tumor. IL-2 and IFNg secretion after 24 hrs of co-culture was measured. Data are mean±s.d. of duplicate or triplicate wells. Representative of n=3 donors shown. […] Reprograming is due to an increase in glutaminolysis and polyamine synthesis and downregulation of CD73, FOXP3, A2aR and c-AMP response transcription factors.
In this example, the in vivo anti-tumor potency of CAR T cells manufactured in the presence or absence of inosine was assessed. In this particular example, the feasibility of manufacturing GD2 CAR T cells in inosine media in the clinical setting was assessed. 2.5×10^8 enriched CD4+ and CD8+ T cells from a healthy donor were activated with anti-CD3/CD28-coated beads and transduced using clinical grade GD2.bbz vector at MOI=10 (FIG. 6A). From day 3, T cells were continued to be cultured in regular-or inosine containing media in a semi-closed culture system using G-Rex platform. […] There was no difference in product viability (FIG. 6D), nor transduction efficiency nor CD4 vs CD8 ratio (FIG. 6E).
A total of 2.5×10^8 enriched CD4+ and CD8+ T cells from a healthy donor were activated with anti-CD3/CD28-coated beads and transduced using clinical grade GD2-CAR vector at an MOI of 10 (FIG. 13A). On day 3, T cells were maintained in standard RPMI media containing glucose or switched to inosine-containing RPMI without glucose in a semi-closed G-Rex culture platform.

HA CAR T cells = assay: Phenotype of tonically signaling (exhausted) HA CAR T cells expanded in inosine media (flow cytometry, CyTOF); format: cell-based, human; conditions: for CD62L expression / frequency of central memory cells: CD8+ HA-CAR T cells, day 21, INO in presence or absence of glucose
Description: A: CD4+vs CD8+ ratio at day 14 post-activation. N-7 donors. P values were determined by paired two-tailed t-tests. […] C: IL-2 and IFNγ secretion at day 14 post-activation. P values were determined by unpaired two-tailed t-tests.
In this example, CAR T cells were cultured in control media until day 4 post activation, followed by continued expansion in regular or inosine-containing media. Phenotype of the cells was assessed by flow cytometry at day 21 post activation. A: Frequency of CD62L+ and CCR7+HA CAR+ T cells in 8 different donors. Representative histograms are shown. B: Relative frequency of central memory (CM), naïve, terminally differentiated (TEMRA) and effector memory (EM) HA CAR T cells. N=8 donors. C: Frequency of CD62L+ and CCR7+CD19.28 CAR+ T cells in 8 different donors. Representative histograms are shown. D: Relative frequency of central memory (CM), naïve, terminally differentiated (TEMRA) and effector memory (EM) CD19.28 CAR T cells. N=8 donors.
N=2-6 donors from independent experiments.
(Top) Dot plots of representative donor shown.
9A: Schematic of the experimental design. […] Graphs represent median expression of indicated markers. […] Representative donor of n=2 donor shown. […] Data are mean+SD from triplicate wells. […] 9K: Schematic of the experimental design. […] Representative donor of n=3 donor shown. […] Representative donor of n=2 donor shown. […] (Top) Dot plots of representative donor shown. […] Representative donor of n=3 donor shown. […] N=2-4 donors from independent experiments. […] N=2-6 donors from independent experiments. […] N=2-4 donors from independent experiments. […] (Top) representative dot plots shown.
Transcriptomic and epigenetic hallmarks of exhaustion occur within 10-12 days in the HA-CAR model. To determine if INO can induce a stem-like phenotype in already exhausted T cells, HA-CAR T cells were exposed to INO on day: 4, 7, 10 and 14 post-activation, analyzing phenotype and function (FIG. 9K).
HA-CAR T cells were cultured from day 4 post-activation in control media containing glucose (11 mM), inosine only at 11 mM (INO), media containing both inosine and glucose at 11 mM or media without glucose or inosine.
To assess whether the observed increase in stemness and functionality is attributable to inosine addition or glucose deprivation, HA-CAR T cells were cultured from day 4 post-activation in control media containing 11 mM glucose (CTR), no glucose and no inosine (starvation condition), 11 mM inosine only (INO), or media containing both inosine and glucose (FIG. 7A). Proliferation was assessed at day 10.

[1] = day 21, inosine supplementation

O=c1[nH]cnc2c1ncn2[C@@H]1O[C@H](CO)[C@@H](O)[C@H]1O [inosine, Inosine]
total cells after expansion (GD2 CAR T cells; G-Rex, inosine media from day 3, day 7, one donor (FIG. 6B)): 384.3×10^6 total cells
total cell yield (GD2 CAR T cells; day 7, INO RPMI without glucose from day 3, n=2 donors, s.e.m.): 238.5×10^6+145.8
CD4 vs CD8 ratio (GD2 CAR T cells; day 7, inosine vs control): no difference
frequency of naive and central memory GD2 CAR T cells (GD2 CAR T cells; day 7, inosine vs control): higher frequency
product viability (GD2 CAR T cells; day 7, inosine vs control): no difference
transduction efficiency (GD2 CAR T cells; day 7, inosine vs control): no difference
CD62L expression (HA CAR T cells): significantly enhanced CD62L expression
frequency of central memory cells (HA CAR T cells): significantly enhanced
CD62L expression (HA CAR T cells; listed as INO): enhanced CD62L expression
frequency of central memory cells (HA CAR T cells; listed as INO): enhanced
frequency of CD8+ cells (HA CAR T cells; HA CAR T cells in INO+ media vs control, day 14): increased the frequency of CD8+ cells
expression of memory markers CD62L and CCR7 (HA CAR T cells; HA CAR T cells in INO+ media, day 21): higher expression
frequency of CD8+CD62L+ HA-CAR T cells (HA CAR T cells; INO added on day 4, 7, 10 or 14 post-activation, assessed day 21): increased frequency
frequency of terminally differentiated and effector cells (HA CAR T cells; [1]): decreased frequency
percentage of naïve and central memory HA CAR T cells (HA CAR T cells; [1]): elevated percentage
CD62L levels (HA CAR T cells; flow cytometry, CD8+ and CD4+ HA-CAR T cells, day 21): higher levels
